From PubChem BioAssay AID248 (DTP/NCI, 2004) come the findings set out here.

Inconclusive results and toxic doses are left out.

In the experiment the test system is L1210 leukemia ip in BDF1 mice, survival T/C. Description: NCI In Vivo Anticancer Drug Screen. Data for tumor model L1210 Leukemia (intraperitoneal) in B6D2F1 (BDF1) mice. As to conditions: endpoint: mean survival time, higher = longer survival. An outline of the steps: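 In this screen, tumor-bearing mice given compound are compared to those given vehicle, and their survival values are reported as a treated-to-control quotient.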

Setting [1] is: dose: 100.0 mg/kg/injection, schedule: Q04DX003 (ip), vehicle: saline with Tween-80.
The mark [2] stands for this setting: dose: 200.0 mg/kg/injection, schedule: Q04DX003 (ip), vehicle: saline with Tween-80.
Setting [3] is: dose: 400.0 mg/kg/injection, schedule: Q04DX003 (ip), vehicle: saline with Tween-80.
Setting [4] is: dose: 75.0 mg/kg/injection, schedule: Q01DX001 (ip), vehicle: saline.
[5] abbreviates: dose: 150.0 mg/kg/injection, schedule: Q01DX001 (ip), vehicle: saline.
The mark [6] stands for this setting: dose: 50.0 mg/kg/injection, schedule: Q01DX009 (ip), vehicle: saline.
[7] abbreviates: dose: 50.0 mg/kg/injection, schedule: Q04DX003 (ip), vehicle: saline.
The mark [8] stands for this setting: dose: 100.0 mg/kg/injection, schedule: Q01DX009 (ip), vehicle: saline.
Setting [9] is: dose: 100.0 mg/kg/injection, schedule: Q04DX003 (ip), vehicle: saline.
Where [10] appears, read: dose: 200.0 mg/kg/injection, schedule: Q01DX009 (ip), vehicle: saline.
Setting [11] is: dose: 200.0 mg/kg/injection, schedule: Q04DX003 (ip), vehicle: saline.
Where [12] appears, read: dose: 400.0 mg/kg/injection, schedule: Q01DX009 (ip), vehicle: saline.
[13] abbreviates: dose: 400.0 mg/kg/injection, schedule: Q04DX003 (ip), vehicle: saline.

Regarding `CC(C(CC(=O)c1ccccc1)c1ccccc1)[N+](=O)[O-]` (stereo unspecified), the T/C is 124 % of control (dose: 100.0 mg/kg/injection, schedule: Q01DX001 (ip), vehicle: Klucel (hydroxypropylcellulose) (HPC)); 98 % of control under setting [1]; 97 % of control (dose: 200.0 mg/kg/injection, schedule: Q01DX001 (ip), vehicle: Klucel (hydroxypropylcellulose) (HPC)); 97 % of control under setting [2]; 96 % of control (dose: 400.0 mg/kg/injection, schedule: Q01DX001 (ip), vehicle: Klucel (hydroxypropylcellulose) (HPC)); 92 % of control under setting [3].

Take `O=C1c2ccccc2-c2c(I)cccc21`: the T/C was 94 % of control (dose: 25.6 mg/kg/injection, schedule: Q04DX002 (ip), vehicle: saline with Tween-80); 94 % of control (dose: 64.0 mg/kg/injection, schedule: Q04DX002 (ip), vehicle: saline with Tween-80); 98 % of control (dose: 160.0 mg/kg/injection, schedule: Q04DX002 (ip), vehicle: saline with Tween-80); 94 % of control (dose: 400.0 mg/kg/injection, schedule: Q04DX002 (ip), vehicle: saline with Tween-80).

Consider `CC1CCC2N(C1)CC1C3(O)CC45OC6(O)C(O)CCC4(C)C6CCC5C3(O)CC(O)C1(O)C2(C)O` (stereo unspecified), for which the T/C was 104 % of control under setting [4] and 105 % of control under setting [5].

As for `CCCN=C(N)c1ccc(N=C(N)c2ccc(N=C(N)c3ccc(C(N)=NCCC)cc3)cc2)cc1`, the T/C by setting is: (dose: 15.0 mg/kg/injection, schedule: Q01DX Z (ip), vehicle: carboxymethylcellulose (CMC)) 154 % of control; (dose: 30.0 mg/kg/injection, schedule: Q01DX Z (ip), vehicle: carboxymethylcellulose (CMC)) 88 % of control; (dose: 50.0 mg/kg/injection, schedule: Q01DX Z (oral), vehicle: carboxymethylcellulose (CMC)) 110 % of control; (dose: 100.0 mg/kg/injection, schedule: Q01DX Z (oral), vehicle: carboxymethylcellulose (CMC)) 109 % of control; (dose: 200.0 mg/kg/injection, schedule: Q01DX Z (oral), vehicle: carboxymethylcellulose (CMC)) 106 % of control; (dose: 400.0 mg/kg/injection, schedule: Q01DX Z (oral), vehicle: carboxymethylcellulose (CMC)) 109 % of control.

Consider `O=CNNC(=O)c1ccccn1`, for which the T/C was 108 % of control (dose: 50.0 mg/kg/injection, schedule: Q01DX001 (ip), vehicle: water); 98 % of control under setting [6]; 100 % of control under setting [7]; 108 % of control (dose: 100.0 mg/kg/injection, schedule: Q01DX001 (ip), vehicle: water); 101 % of control under setting [8]; 96 % of control under setting [9]. In addition, the T/C by setting is: under setting [10], 114 % of control; under setting [11], 109 % of control.

In the case of `CCOC(=O)C(=CNc1ccc(Cl)cc1Cl)C(=O)OCC`, the T/C (dose: 100.0 mg/kg/injection, schedule: Q01DX001 (ip), vehicle: other) is 93 % of control; the T/C (dose: 200.0 mg/kg/injection, schedule: Q01DX001 (ip), vehicle: other) was 101 % of control; the T/C (dose: 400.0 mg/kg/injection, schedule: Q01DX001 (ip), vehicle: other) was 101 % of control.

For the compound `CC(=O)NS(=O)(=O)c1ccc(N=Cc2cc(Cl)cc(Cl)c2O)cc1`, the T/C was 111 % of control under setting [8], 102 % of control under setting [10] and 102 % of control under setting [12].

`NCC(O)c1ccc(O)cc1` (stereo unspecified): the T/C was 101 % of control under setting [7]; 93 % of control (dose: 100.0 mg/kg/injection, schedule: Q01DX001 (ip), vehicle: saline); 97 % of control under setting [9]; 93 % of control (dose: 200.0 mg/kg/injection, schedule: Q01DX001 (ip), vehicle: saline); 98 % of control under setting [11]; 101 % of control (dose: 400.0 mg/kg/injection, schedule: Q01DX001 (ip), vehicle: saline).

Take `Cc1ccc[n+](CCC(N)=O)c1`: the T/C was 92 % of control under setting [8]; 102 % of control under setting [9]; 93 % of control under setting [10]; 102 % of control under setting [11]; 97 % of control under setting [12]; 94 % of control under setting [13].

In the case of `Cc1cccnc1NC(=O)/C=C/C(=O)O`, the T/C reads like this: (dose: 12.5 mg/kg/injection, schedule: Q01DX009 (ip), vehicle: saline) 94 % of control; (dose: 25.0 mg/kg/injection, schedule: Q01DX009 (ip), vehicle: saline) 100 % of control; under setting [6], 94 % of control.

On to `CC(=O)OC1CCC2(C)C(=CCC3C2CCC2(C)C3CC3C(c4ccccc4F)=NN(c4ccccc4)C32C#N)C1` (stereo unspecified), for which the T/C (dose: 100.0 mg/kg/injection, schedule: Q04DX002 (ip), vehicle: Klucel (hydroxypropylcellulose) (HPC)) is 106 % of control; the T/C (dose: 200.0 mg/kg/injection, schedule: Q04DX002 (ip), vehicle: Klucel (hydroxypropylcellulose) (HPC)) was 95 % of control; the T/C (dose: 400.0 mg/kg/injection, schedule: Q04DX002 (ip), vehicle: Klucel (hydroxypropylcellulose) (HPC)) is 95 % of control.

Regarding `CCOc1ccc(/C=N/Nc2ccc([N+](=O)[O-])cc2)cc1OC`, the T/C is 93 % of control (dose: 25.0 mg/kg/injection, schedule: Q01DX009 (ip), vehicle: saline sonified); 91 % of control (dose: 37.5 mg/kg/injection, schedule: Q01DX009 (ip), vehicle: saline with Tween-80); 103 % of control (dose: 50.0 mg/kg/injection, schedule: Q01DX009 (ip), vehicle: saline sonified); 93 % of control (dose: 75.0 mg/kg/injection, schedule: Q01DX009 (ip), vehicle: saline with Tween-80); 98 % of control (dose: 100.0 mg/kg/injection, schedule: Q01DX009 (ip), vehicle: saline sonified); 90 % of control under setting [1]. The T/C (dose: 150.0 mg/kg/injection, schedule: Q01DX009 (ip), vehicle: saline with Tween-80) is 96 % of control; the T/C under setting [2] was 97 % of control; the T/C (dose: 400.0 mg/kg/injection, schedule: Q04DX003 (ip), vehicle: saline sonified) was 88 % of control; the T/C under setting [3] is 87 % of control.

Take `Cc1ccc(NC(=O)Nc2ccccc2)cc1Cl`: the T/C was 100 % of control (dose: 100.0 mg/kg/injection, schedule: Q01DX009 (sc), vehicle: olive oil, sesame oil, peanut oil); 100 % of control (dose: 100.0 mg/kg/injection, schedule: Q04DX003 (sc), vehicle: olive oil, sesame oil, peanut oil); 96 % of control (dose: 200.0 mg/kg/injection, schedule: Q01DX009 (sc), vehicle: olive oil, sesame oil, peanut oil); 99 % of control (dose: 200.0 mg/kg/injection, schedule: Q04DX003 (sc), vehicle: olive oil, sesame oil, peanut oil); 91 % of control (dose: 400.0 mg/kg/injection, schedule: Q01DX009 (sc), vehicle: olive oil, sesame oil, peanut oil); 100 % of control (dose: 400.0 mg/kg/injection, schedule: Q04DX003 (sc), vehicle: olive oil, sesame oil, peanut oil).

Take `CCCCCCCCC(CO)CCCCCC` (stereo unspecified): the T/C reads like this: under setting [9], 100 % of control; under setting [11], 106 % of control; under setting [13], 92 % of control.

Consider `Cc1ccc(SCCCN)cc1`, for which the T/C is 100 % of control under setting [4] and 94 % of control under setting [5].
